Patent US10239925B2, “Peptides and combination of peptides for use in immunotherapy against ovarian cancer and other cancers” (IMMATICS BIOTECHNOLOGIES GMBH, priority 2015, dated 2019)

Assays:
HLA-A*02:01 = HLA-A*02:01 (Homo sapiens, UniProt P04439, D140Y/D185E/D98H/E176V/E277Q/G131W/G231S/I119V/I121R/I166T/I218V/L300P/L318F/N151K/N90K/P208A/P217A/Q86G/Q94H/R138H/R169H/T345S); assay: MHC binding assay (UV-ligand exchange, anti-β2m ELISA, peptide exchange yield); details: binding to HLA-A*02:01
Summary of the method: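 Peptide-MHC complexes formed by UV-ligand exchange, cleaving a UV-sensitive placeholder peptide in favour of the test peptide. Exchange yield measured by ELISA: monomers diluted 100-fold onto streptavidin-coated plates, 1 h 37 °C, detected with 2 ug/ml HRP anti-β2m and TMB, absorbance at 450 nm.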

CD8+ T cells = assay: In vitro immunogenicity: priming of CD8+ T cells with aAPCs loaded with peptide/MHC and anti-CD28, multimer readout; assay type: cell-based, human; details: for Wells positive [%]: HLA-A*02 restricted peptides, percentage of positive wells (among evaluable)
Description: In an aspect, the peptides are pre-screened for immunogenicity before being included in the warehouse. By way of example, and not limitation, the immunogenicity of the peptides included in the warehouse is determined by a method comprising in vitro T-cell priming through repeated stimulations of CD8+ T cells from healthy donors with artificial antigen presenting cells loaded with peptide/MHC complexes and anti-CD28 antibody.
FIGS. 3A to 3F show exemplary immunogenicity data: flow cytometry results after peptide-specific multimer staining. CD8+ T cells were primed using artificial APCs coated with anti-CD28 mAb and HLA-A*02 in complex with SeqID No 662 (FIG. 3A, left panel), SeqID No 663 (FIG. 3B, left panel), SeqID No 11 peptide (FIG. 3C, left panel), SeqID No 198 peptide (FIG. 3D, left panel), SeqID No 587 peptide (FIG. 3E, left panel) and SeqID No 427 peptide (FIG. 3F, left panel), respectively. After three cycles of stimulation, the detection of peptide-reactive cells was performed by 2D multimer staining with A*02/SeqID No 662 (FIG. 3A), A*02/SeqID No 663 (FIG. 3B), A*02/SeqID No 11 (FIG. 3C), A*02/SeqID No 198 (FIG. 3D), A*02/SeqID No 587 (FIG. 3E) or A*02/SeqID No 427 (FIG. 3F). Right panels (FIGS. 3A, 3B, 3C, 3D, 3E, and 3F) show control staining of cells stimulated with irrelevant A*02/peptide complexes. Viable singlet cells were gated for CD8+ lymphocytes. Boolean gates helped excluding false-positive events detected with multimers specific for different peptides. Frequencies of specific multimer+ cells among CD8+ lymphocytes are indicated.
In Vitro Immunogenicity for MHC Class I Presented Peptides
In order to obtain information regarding the immunogenicity of the TUMAPs of the present invention, the inventors performed investigations using an in vitro T-cell priming assay based on repeated stimulations of CD8+ T cells with artificial antigen presenting cells (aAPCs) loaded with peptide/MHC complexes and anti-CD28 antibody.
In Vitro Priming of CD8+ T Cells
In order to perform in vitro stimulations by artificial antigen presenting cells loaded with peptide-MHC complex (pMHC) and anti-CD28 antibody, the inventors first isolated CD8+ T cells from fresh HLA-A*02 leukapheresis products via positive selection using CD8 microbeads (Miltenyi Biotec, Bergisch-Gladbach, Germany) of healthy donors obtained from the University clinics Mannheim, Germany, after informed consent.
PBMCs and isolated CD8+ lymphocytes were incubated in T-cell medium (TCM) until use consisting of RPMI-Glutamax (Invitrogen, Karlsruhe, Germany) supplemented with 10% heat inactivated human AB serum (PAN-Biotech, Aidenbach, Germany), 100 U/ml Penicillin/100 μg/ml Streptomycin (Cambrex, Cologne, Germany), 1 mM sodium pyruvate (CC Pro, Oberdorla, Germany), 20 μg/ml Gentamycin (Cambrex). 2.5 ng/ml IL-7 (PromoCell, Heidelberg, Germany) and 10 U/ml IL-2 (Novartis Pharma, Nümberg, Germany) were also added to the TCM at this step.
Generation of pMHC/anti-CD28 coated beads, T-cell stimulations and readout was performed in a highly defined in vitro system using four different pMHC molecules per stimulation condition and 8 different pMHC molecules per readout condition.
The purified co-stimulatory mouse IgG2a anti human CD28 Ab 9.3 (Jung et al., 1987) was chemically biotinylated using Sulfo-N-hydroxysuccinimidobiotin as recommended by the manufacturer (Perbio, Bonn, Germany). Beads used were 5.6 μm diameter streptavidin coated polystyrene particles (Bangs Laboratories, Illinois, USA).
pMHC used for positive and negative control stimulations were A*0201/MLA-001 (peptide […] (SEQ ID NO. 664) from modified Melan-A/MART-1) and A*0201/DDX5-001 ([…] from DDX5, SEQ ID NO. 665), respectively.
800.000 beads/200 μl were coated in 96-well plates in the presence of 4×12.5 ng different biotin-pMHC, washed and 600 ng biotin anti-CD28 were added subsequently in a volume of 200 μl. […]

118 (KLIDNNINV; listed as Homo sapiens) [compound 118]
Peptide exchange (MHC class I binding score, peptide exchange yield) (HLA-A*02:01): “+++” (>50 = +++) | Wells positive [%] (CD8+ T cells): “+” (<20% = +)

141 (YLDFSNNRL; listed as Homo sapiens) [compound 141]
Peptide exchange (MHC class I binding score, peptide exchange yield) (HLA-A*02:01): “++” (>20% = ++) | Wells positive [%] (CD8+ T cells): “+” (<20% = +)

143 (LLLDITPEI; listed as Homo sapiens) [compound 143]
Peptide exchange (MHC class I binding score, peptide exchange yield) (HLA-A*02:01): “++++” (>75% = ++++) | Wells positive [%] (CD8+ T cells): “+” (<20% = +)

150 (RLWEEGEELEL; listed as Homo sapiens) [compound 150]
Peptide exchange (MHC class I binding score, peptide exchange yield) (HLA-A*02:01): “+++” (>50 = +++) | Wells positive [%] (CD8+ T cells): “+” (<20% = +)

152 (ILFEDIFDV; listed as Homo sapiens) [compound 152]
Peptide exchange (MHC class I binding score, peptide exchange yield) (HLA-A*02:01): “+++” (>50 = +++) | Wells positive [%] (CD8+ T cells): “++” (20% - 49% = ++)

157 (SLNDEVPEV; listed as Homo sapiens) [compound 157]
Peptide exchange (MHC class I binding score, peptide exchange yield) (HLA-A*02:01): “++” (>20% = ++) | Wells positive [%] (CD8+ T cells): “+++” (50% - 69% = +++)

166 (YLNHLEPPV; listed as Homo sapiens) [compound 166]
Peptide exchange (MHC class I binding score, peptide exchange yield) (HLA-A*02:01): “+++” (>50 = +++) | Wells positive [%] (CD8+ T cells): “++++” (≥70% = ++++)

191 (LLQEGQALEYV; listed as Homo sapiens) [compound 191]
Peptide exchange (MHC class I binding score, peptide exchange yield) (HLA-A*02:01): “++” (>20% = ++) | Wells positive [%] (CD8+ T cells): “+++” (50% - 69% = +++)

198 (KTINKVPTV; listed as Homo sapiens) [compound 198]
Peptide exchange (MHC class I binding score, peptide exchange yield) (HLA-A*02:01): “+++” (>50 = +++) | Wells positive [%] (CD8+ T cells): “++” (20% - 49% = ++)

199 (ALQDVPLSSV; listed as Homo sapiens) [compound 199]
Peptide exchange (MHC class I binding score, peptide exchange yield) (HLA-A*02:01): “+++” (>50 = +++) | Wells positive [%] (CD8+ T cells): “+” (<20% = +)

215 (QLINHLHAV; listed as Homo sapiens) [compound 215]
Peptide exchange (MHC class I binding score, peptide exchange yield) (HLA-A*02:01): “+++” (>50 = +++) | Wells positive [%] (CD8+ T cells): “++” (20% - 49% = ++)

242 (AIAYILQGV; listed as Homo sapiens) [compound 242]
Peptide exchange (MHC class I binding score, peptide exchange yield) (HLA-A*02:01): “++” (>20% = ++) | Wells positive [%] (CD8+ T cells): “+++” (50% - 69% = +++)

247 (VLLPNDLLEKV; listed as Homo sapiens) [compound 247]
Peptide exchange (MHC class I binding score, peptide exchange yield) (HLA-A*02:01): “+++” (>50 = +++) | Wells positive [%] (CD8+ T cells): “+” (<20% = +)

283 (ALYIGDGYVIHLA; listed as Homo sapiens) [compound 283]
Peptide exchange (MHC class I binding score, peptide exchange yield) (HLA-A*02:01): “+++” (>50 = +++) | donors (CD8+ T cells; percentage of positive donors): +++ (50% - 69% = +++) | wells (CD8+ T cells; percentage of positive wells): + (<20% = +)

319 (SLEPQIQPV; listed as Homo sapiens) [compound 319]
Peptide exchange (MHC class I binding score, peptide exchange yield) (HLA-A*02:01): “++” (>20% = ++) | Wells positive [%] (CD8+ T cells): “+” (<20% = +)

384 (ILFANPNIFV; listed as Homo sapiens) [compound 384]
Peptide exchange (MHC class I binding score, peptide exchange yield) (HLA-A*02:01): “+++” (>50 = +++) | Wells positive [%] (CD8+ T cells): “+” (<20% = +)

395 (ALALGGIAVV; listed as Homo sapiens) [compound 395]
Peptide exchange (MHC class I binding score, peptide exchange yield) (HLA-A*02:01): “++++” (>75% = ++++) | Wells positive [%] (CD8+ T cells): “+++” (50% - 69% = +++)

443 (GLWEIENNPTV; listed as Homo sapiens) [compound 443]
Peptide exchange (MHC class I binding score, peptide exchange yield) (HLA-A*02:01): “+++” (>50 = +++) | Wells positive [%] (CD8+ T cells): “+” (<20% = +)

446 (QLIPALAKV; listed as Homo sapiens) [compound 446]
Peptide exchange (MHC class I binding score, peptide exchange yield) (HLA-A*02:01): “+++” (>50 = +++) | Wells positive [%] (CD8+ T cells): “++” (20% - 49% = ++)

454 (KLPPPPPQA; listed as Homo sapiens) [compound 454]
Peptide exchange (MHC class I binding score, peptide exchange yield) (HLA-A*02:01): “+++” (>50 = +++) | Wells positive [%] (CD8+ T cells): “++” (20% - 49% = ++)

460 (AMLEKNYKL; listed as Homo sapiens) [compound 460]
Peptide exchange (MHC class I binding score, peptide exchange yield) (HLA-A*02:01): “++++” (>75% = ++++) | Wells positive [%] (CD8+ T cells): “+” (<20% = +)

463 (SLVESHLSDQLTL; listed as Homo sapiens) [compound 463]
Peptide exchange (MHC class I binding score, peptide exchange yield) (HLA-A*02:01): “+++” (>50 = +++) | Wells positive [%] (CD8+ T cells): “++” (20% - 49% = ++)

489 (KMWEELPEVV; listed as Homo sapiens) [compound 489]
Peptide exchange (MHC class I binding score, peptide exchange yield) (HLA-A*02:01): “+++” (>50 = +++) | Wells positive [%] (CD8+ T cells): “+” (<20% = +)

499 (KIFDIDEAEEGV; listed as Homo sapiens) [compound 499]
Peptide exchange (MHC class I binding score, peptide exchange yield) (HLA-A*02:01): “++” (>20% = ++) | Wells positive [%] (CD8+ T cells): “+” (<20% = +)

511 (FLDPYCSASV; listed as Homo sapiens) [compound 511]
Peptide exchange (MHC class I binding score, peptide exchange yield) (HLA-A*02:01): “++” (>20% = ++) | Wells positive [%] (CD8+ T cells): “+” (<20% = +)

518 (KLNAEVACV; listed as Homo sapiens) [compound 518]
Peptide exchange (MHC class I binding score, peptide exchange yield) (HLA-A*02:01): “+++” (>50 = +++) | Wells positive [%] (CD8+ T cells): “++” (20% - 49% = ++)

603 (FLIEPEHVNTV; listed as Homo sapiens) [compound 603]
Peptide exchange (MHC class I binding score, peptide exchange yield) (HLA-A*02:01): “++” (>20% = ++) | Wells positive [%] (CD8+ T cells): “+” (<20% = +)
